Results: US20110034434A1, “PRODRUGS OF FUSED HETEROCYCLIC INHIBITORS OF D-AMINO ACID OXIDASE” (SEPRACOR INC., priority 2009, published 2011)

Legend:
[1] = test system: D-serine; assay: PK-PD evaluation in rats: D-serine levels in cerebellum after oral dosing; format: in vivo; conditions: rat cerebellum, 6 hours after PO dosing, dose normalized to 10 mg/kg of the acid; mean ± spread (n)
Experimental: Rats (Harlan male Sprague) (N=3) were dosed orally with an amount of test compound, suspended in 45% (w/v) hydroxy-β-cyclodextrin vehicle, dose normalized to 10 mg/kg of the corresponding carboxylic acid. Additional male cannulated rats (N=3) were dosed orally with the parent carboxylic acid, suspended in 45% (w/v) hydroxy-β-cyclodextrin vehicle, at 10 mg/kg. Animals were sacrificed at pre-determined time points (e.g., 0.5, 2 and/or 6 hours post administration) with an N=3 at each time point. At sacrifice, trunk blood was collected into tubes containing potassium EDTA, which were then centrifuged to permit isolation of plasma. The cerebellum was dissected from each animal. Plasma and cerebellum samples were stored at −80° C. until samples were analyzed using a SCIEX API2000 or SCIEX API5000 LC/MS/MS. Samples were analyzed for the amount of corresponding parent acid, D-serine, and/or the amount of test compound.
Conversion of test compounds to 4H-furo[3,2-b]pyrrole-5-carboxylic acid (“acid”; 77) in rats was evaluated according to General Procedure 12. 4H-furo[3,2-b]pyrrole-5-carboxylic acid and D-serine levels in plasma and cerebellum were measured. Animals were sacrificed at 6 hours post administration. In Table 6, “[D-serine] cerebellum” refers to D-serine levels, in nmol/g, in the rat cerebellum. In Table 6, “[acid] cerebellum” refers to the concentration, in μM, of the 4H-furo[3,2-b]pyrrole-5-carboxylic acid in the cerebellum. In Table 6, “[acid] plasma” refers to the concentration, in μM, of the 4H-furo[3,2-b]pyrrole-5-carboxylic acid in the plasma. The row labeled “acid”, denotes the data obtained from dosing 4H-furo[3,2-b]pyrrole-5-carboxylic acid. The row labeled “vehicle” denotes the data obtained from dosing vehicle, and the remaining row in the table denote the data obtained from dosing the test compounds.

[2] = Hydrolysis rate of test compounds in pH 7.4 and 2.0 aqueous solution; format: physicochemical; conditions: HPLC; for Hydrolysis rate at pH 7.4: 0.05 M sodium phosphate buffer pH 7.4, over 6 hours; for Hydrolysis rate at pH 2.0: water adjusted with phosphoric acid to pH 2.0, over 2 hours
Experimental: 10 mM DMSO solutions of test compounds were diluted with a 0.05 M sodium phosphate buffer (pH 7.4) or water adjusted with phosphoric acid to pH 2.0, with a final concentration of 0.013 mg/mL. Samples were analyzed over either 2 or 6 hours, by HPLC.
The amount of test compound and the corresponding acid were determined. The rate of conversion of the test compound was calculated based on formation of the corresponding acid and loss of parent.
The rate of hydrolysis of test compounds to 4H-furo[3,2-b]pyrrole-5-carboxylic acid was evaluated in pH 7.4 aqueous solution over 6 hours, and in pH 2.0 aqueous solution over 2 hours, according to General Procedure 14.

| Compound | [D-serine] cerebellum [1] | Hydrolysis rate at pH 7.4 [2] | Hydrolysis rate at pH 2.0 [2] |
| --- | --- | --- | --- |
| CN(C)C(=O)COC(=O)c1cc2occc2[nH]1 [compound 20, 2-(dimethylamino)-2-oxoethyl 4H-furo[3,2-b]pyrrole-5-carboxylate] | 19 ± 0.8(6) nmol/g | No hydrolysis | No hydrolysis |
| O=C(OCC(=O)N1CCOCC1)c1cc2occc2[nH]1 [compound 21, 2-morpholino-2-oxoethyl 4H-furo[3,2-b]pyrrole-5-carboxylate] | 19 ± 1.0(6) nmol/g | No hydrolysis | No hydrolysis |
| O=C(OCCN1CCOCC1)c1cc2occc2[nH]1 [compound 30, 2-morpholinoethyl 4H-furo[3,2-b]pyrrole-5-carboxylate] | 14 ± 1.2(3) nmol/g | No hydrolysis | No hydrolysis |
| CC(OC(=O)c1cc2occc2[nH]1)OC(=O)C(C)C (stereo not shown) [compound 35, 1-(isobutyryloxy)ethyl 4H-furo[3,2-b]pyrrole-5-carboxylate] | 16 ± 0.9(3) nmol/g | 3.46%/hr |  |
| CC(OC(=O)OC1CCCCC1)OC(=O)c1cc2occc2[nH]1 (stereo not shown) [compound 39, 1-(cyclohexyloxycarbonyloxy)ethyl 4H-furo[3,2-b]pyrrole-5-carboxylate] | 17 ± 2.6(3) nmol/g | 0.21%/hr |  |
| Cc1oc(=O)oc1COC(=O)c1cc2occc2[nH]1 [compound 72, (5-methyl-2-oxo-1,3-dioxol-4-yl)methyl 4H-furo[3,2-b]pyrrole-5-carboxylate] | 21 ± 3.5(9) nmol/g | 0.20%/hr | No hydrolysis |
